Reference: patent publication US20180327354A1, “Unnatural Analogues of Calcitriol and Uses Thereof” (Vidasym, Inc., priority 2009, published 2018)
pEC50: −log10 of the molar value. Entries after “also recorded” stand apart in the source; their conditions may differ. Like-named read-outs stand apart in the source and are kept apart here.

Assays:
CYP24A1 [1] = assay: CYP24A1 expression induction in HL-60 promyelocytic leukemia cells (real-time RT-PCR); format: cell-based; details: Homo sapiens; HL-60 cells, 24 h, mRNA normalized to GAPDH; Table 3 summary, some values average of 3 or more determinations; read-out: CYP24A1 EC50
Protocol: (§1) Some compounds were tested in HL-60 promyelocytic leukemia cells and a primary culture of human coronary artery smooth muscle cells (HCASMC) for CYP24A1 induction. It is well documented that CYP24A1 has a VDRE in its promoter region and is a specific target gene of VDR (Meyer et al., 2007, J Biol Chem 282: 22344-22352). […] Compounds also were tested in HCASMC for their effects in inducing VDR. To assess the suitability of a compound for modulating immune responses, compounds were tested in HL-60 for their effects in inducing CD14 expression. To assess the suitability of a compound for treating thrombosis, compounds also were tested in HCASMC for their effects in modulating thrombomodulin and thrombospondin-1.
(§2) Compounds are tested in human HL-60 promyelocytic leukemia cells to assess their potency in inducing the expression of CYP24A1 and CD14. HL-60 cells are cultured in IMDM supplemented with 20% heat-inactivated fetal bovine serum at 37° C. in a humidified 5% CO2-95% air atmosphere. Cells are plated into 6 well plates and treated with test agent for 24 h. Cells are lysed with the addition of 1 mL of Trizol and RNA prepared according to the manufacturer's protocol.
(§3) Real-time reverse transcription-PCR is performed with the forward and reverse PCR primers and 250 nM of the TAQMAN™ probe specifically designed for CYP24A1 or CD14. (A TAQMAN™ probe is comprised of a fluorophore covalently attached to the 5′-end of the oligonucleotide probe and a quencher at the 3′-end.) After the data acquisition, the CYP24A1 or CD14 mRNA expression level is normalized to the GAPDH mRNA level. FIGS. 2A and 2B show the results from a typical CYP24A1 (FIG. 2A) and CD14 (FIG. 2B) expression study.

CD14 = CD14 expression induction in HL-60 promyelocytic leukemia cells (real-time RT-PCR); format: cell-based; details: Homo sapiens; HL-60 cells, 24 h, mRNA normalized to GAPDH; Table 3 summary, some values average of 3 or more determinations; read-out: CD14 EC50
Protocol: as §1, §2, §3

normal mice = assay: Hypercalcemic side effect profile and serum PTH in normal mice; format: in vivo, Male C57/BL mice; details: i.p. dosing once daily for 3 consecutive days
Protocol: The normal mice model is a convenient and quick way to assess the hypercalcemic side effect profile of compounds. At the same time, data on serum PTH can be collected.
Male C57/BL mice at 18-20 g are dosed with the test agent at 100 al/mouse (concentrations as indicated) i.p. once daily for 3 consecutive days or at 10 ml/kg, p.o. gavage, once daily for 5 days. The animals were harvested 24 h after the last dose by anesthetization with ketamine/xylazine. Blood was collected from the aorta. Serum total calcium was measured using the QuantiChrom Calcium Assay kit and/or the Roche Hitachi 912 Chemistry Analyzer. Serum PTH was measured using a PTH Immunoassay. Vehicle control was 100 l/mouse of 5% EtOH/95% propylene glycol for i.p. dosing or 10 ml/kg of 20% Hydroxypropyl-β-Cyclodextrin for p.o. gavage dosing.
For serum chemistry data, group mean±SEM are presented. Differences between vehicle and compound-treated groups are assessed using a one-way ANOVA followed by a Dunnett's post-hoc test. FIGS. 3A and 3B show the results from a typical p.o. gavage dosing study (n=4-9 per group).

CYP24A1 [2] = assay: CYP24A1 expression induction in primary culture of human coronary artery smooth muscle cells; format: cell-based; details: HCASMC, 24 h, Table 4 summary, some values average of 2 or more determinations, read-out: EC50 for CYP24A1 induction
Protocol: (§4) Compounds were tested in a primary culture of HCASMC to assess their potency in inducing the expression of CYP24A1 and VDR.
(§5) Primary culture of HCASMC was grown in smooth muscle growth medium SmGM-2 containing 5.5 mM glucose, 5% FBS, 50 μg/ml gentamicin, 50 ng/ml amphotericin-B, 5 μg/ml insulin, 2 ng/ml hFGF, and 0.5 ng/ml hEGF at 37° C. in a humidified 5% CO2-95% air. Cells were grown to >80% confluence and used within five passages.
(§6) Cells were plated into 6 well plates and treated with test agent for 24 h. Cells were lysed with the addition of 1 mL of Trizol and RNA prepared according to the manufacturer's protocol.
(§7) Real-time reverse transcription-PCR was performed with the forward and reverse PCR primers and […] of the TAQMAN™ probe specifically designed for CYP24A1 or VDR. (A TAQMAN™ probe is comprised of a fluorophore covalently attached to the 5′-end of the oligonucleotide probe and a quencher at the 3′-end.) After the data acquisition, the CYP24A1 or VDR mRNA expression level was normalized to the GAPDH mRNA level. […] Group mean±STDEV (standard deviation) are presented.

VDR = VDR expression induction in primary culture of human coronary artery smooth muscle cells; format: cell-based; details: HCASMC, 24 h, Table 4 summary, some values average of 2 or more determinations, read-out: EC50 for VDR induction
Protocol: as §4, §5, §6, §7

thrombospondin-1 = assay: Thrombospondin-1 protein in human coronary artery smooth muscle cells (Western blot); format: cell-based; details: HCASMC, 48 h, FIG. 21A
Protocol: (§8) Human coronary artery smooth muscle cells (HCASM) were incubated with Vida-5 or Vida-11 at different concentrations for 48 h and then were solubilized in 50 al of SDS-PAGE sample buffer. The protein content in each sample was determined by the bicinchoninic acid protein assay. Samples were resolved by SDS-PAGE using a 4-12% NuPAGE gel, and proteins were electrophoretically transferred to polyvinylidene fluoride membrane for Western blotting. The membrane was blocked for 1 h at 25° C. with 5% nonfat dry milk in phosphate buffered saline Tween-20 (PBS-T) and then incubated with a mouse anti-thrombospondin-1 monoclonal antibody (2,000-fold dilution), or a mouse anti-TM monoclonal antibody (2,000-fold dilution) in PBS-T overnight at 4° C.
(§9) The membrane was washed with PBS-T and incubated with a horseradish peroxidase-labeled anti-mouse antibody for 1 h at 25° C. The membrane was then incubated with Amersham ECL Plus Western Blotting Detection Reagents. Specific bands were visualized by the Multiimage II of Alpha Innotech imaging system. Band intensity was quantified using Spot Denso.

thrombomodulin = assay: Thrombomodulin protein in human coronary artery smooth muscle cells (Western blot); format: cell-based; details: HCASMC, 48 h, FIG. 21B
Protocol: as §8, §9

[3] = Maximal absorbance wavelength and extinction coefficient (spectrophotometer scan); format: physicochemical; details: 100 μM in 50:50 de-ionized water and ethanol
Protocol: To determine the maximal absorbance wavelength (ODmax) and the extinction coefficients for the compounds, each compound is diluted in a 50:50 solution (by volume) of de-ionized water and ethanol at 100 μM and scanned by a spectrophotometer.

uremic rats = details: cited from earlier work
[4] = clinical studies, Martin et al., 2001; cited from earlier work
[5] = Slatopolsky et al., 1998, converted from ng/rat

SMILES	pEC50 (CYP24A1 [1])	pEC50 (CD14)	dose at which compound starts to raise serum Ca (normal mice)	pEC50 (CYP24A1 [2])	pEC50 (VDR)	thrombospondin-1 protein expression (thrombospondin-1)	thrombomodulin protein expression (thrombomodulin)	maximal absorbance wavelength [3]	extinction coefficient ([3]; in M-1·cm-1 (unit assumed))	dose at which compound raises serum Ca (uremic rats; Noonan et al., 2008)	dose at which compound starts to suppress serum PTH (uremic rats; Noonan et al., 2008)	dose at which compound raises serum Ca (uremic rats; [5])	dose at which compound starts to suppress serum PTH (uremic rats; [5])	dose at which compound raises serum Ca (uremic rats; Slatopolsky et al., 1998)	dose at which compound starts to suppress serum PTH (uremic rats; Slatopolsky et al., 1998)	fold less potent in raising serum calcium than calcitriol [4]	fold less potent in suppressing PTH than calcitriol [4]
C=C1[C@H](O)CC(=C/C=C2\CCCC3(C)C2CCC3[C@@H](C)OCCCC(O)(CC)CC)C[C@H]1O (stereo partly drawn) [Vida-21, (1R,3R)-5-((E)-2-((1S,7αS)-1-((R)-1-(4-ethyl-4-hydroxyhexyloxy)ethyl)-7α-methyldihydro-1H-inden-4(2H, 5H, 6H, 7H, 7αH)-ylidene)ethylidene)-2-methylenecyclohexane-1,3-diol]	9.10	8.96	0.1 µg/kg	8.74	8.60	suppress; also recorded: significantly reduced	induce; also recorded: increased	253 nm	58710	–	–	–	–	–	–	–	–
C[C@H](/C=C/[C@H](C)C(C)(C)O)[C@H]1CC[C@H]2/C(=C/C=C3C[C@@H](O)C[C@H](O)C3)CCC[C@]12C [paricalcitol]	–	–	–	–	–	–	–	–	–	0.083 µg/kg	0.083 µg/kg	~0.0625 µg/kg	~0.02 µg/kg	25 ng/rat	8 ng/rat	10 fold	about 3 fold
